Test system: alopecia areata
Assay: Efficacy and safety of upadacitinib in AD patients with concomitant alopecia areata (SALT, AA-IGA)
Assay type: in vivo, human
Description: According to data reported in the patient clinical report forms by each investigator, all AD patients who were concomitantly suffering from alopecia areata at the baseline visit were identified. Medical records included demographic characteristics such as age, sex, occupation, smoking habits (smoker, former smoker, or non-smoker), AD history and severity, alopecia areata history and severity, prior treatments, atopic and non-atopic comorbidities, serum IgE levels, and concomitant therapies.
Patients were evaluated at baseline, and follow-up visits were scheduled after 4 weeks from baseline, and every 12 weeks thereafter. At baseline and at each follow-up visit, AD severity was assessed by Eczema Area and Severity Index (EASI) together with other tools. To evaluate severity and treatment response of alopecia areata, Severity of Alopecia Tool (SALT) and Alopecia Areata-Investigator Global Assessment (AA-IGA) were performed, as commonly used in daily practice. […] The SALT change throughout the observation period was recorded as the difference between the baseline SALT score and the SALT score value calculated at each follow-up visit (A SALT).
Qualitative and quantitative variables were described as relative frequencies (%), mean and standard deviation (or medians and interquartile ranges [IR], as appropriate), respectively. […] Data are reported and analysed “as observed”. […]

SMILES: CC[C@@H]1CN(C(=O)NCC(F)(F)F)C[C@@H]1c1cnc2cnc3[nH]ccc3n12 [upadacitinib, (3S,4R)-3-ethyl-4-(3H-imidazo[1,2-a]pyrrolo[2,3-e]pyrazin-8-yl)-N-(2,2,2-trifluoroethyl)pyrrolidine-1-carboxamide]
- predicted SALT reduction for each 1-unit increase in the age of alopecia areata onset (multivariable regression, independent of baseline SALT and sex): 2.1 point
- patients with clinically meaningful hair regrowth (achievement of at least SALT 50 response) (upadacitinib 30 mg once daily, after 4 weeks of treatment): about 16%
